Some test systems named below: A549 NSCLC; CCRF-CEM leukemia; COLO 205 colon; IGROV1 ovarian; NCI-H23 lung; OVCAR-8 ovarian; RPMI-8226 leukemia; SK-OV-3 ovarian; SN12C renal; SW-620 colon.
Holding throughout (experiment): NCI anticancer screen, dose series, 48 h

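Each compound was tested at five concentrations against cells in 96-well plates for 48 hours. Abbreviation: GI50, concentration required for 50% inhibition of growth. TGI is the concentration that stops growth completely.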

For the molecule `COc1cc(/C=C/c2cc(/C=C/c3ccc(O)c(OC)c3)n(C(=O)Nc3ccc(F)cc3)n2)ccc1O`, the GI50 was 2.44 µM in the test on A549 NSCLC; 0.367 µM in the test with CCRF-CEM leukemia; 2.09 µM with COLO 205 colon; 2.38 µM with IGROV1 ovarian; 0.727 µM in the test on NCI-H23 lung; 1.5 µM in the test on OVCAR-8 ovarian. The GI50 in the test on RPMI-8226 leukemia is 0.454 µM; in the test on SK-OV-3 ovarian, 1.04 µM; with SN12C renal it was 0.953 µM; in the test with SW-620 colon it was 0.504 µM. Also, the TGI was 18.3 µM with A549 NSCLC; 9.57 µM with CCRF-CEM leukemia; 3.7 µM with COLO 205 colon; 34.3 µM in the test on IGROV1 ovarian; 4.45 µM with NCI-H23 lung; 4.79 µM with OVCAR-8 ovarian. Moreover, the TGI in the test with RPMI-8226 leukemia was determined as 3.37 µM; with SK-OV-3 ovarian it was 4.33 µM; in the test on SN12C renal, 34.1 µM; with SW-620 colon, 10.6 µM.
As to `Cc1cc(=O)[nH]c2cc3oc4ccccc4c3cc12`, the TGI was > 100 µM in the test on A549 NSCLC; > 75.9 µM with CCRF-CEM leukemia; > 100 µM with COLO 205 colon; > 100 µM in the test on IGROV1 ovarian; > 100 µM in the test on NCI-H23 lung; > 100 µM in the test on OVCAR-8 ovarian. In addition, the TGI with RPMI-8226 leukemia, in the test with SK-OV-3 ovarian, in the test on SN12C renal and with SW-620 colon was > 100 µM throughout.
Turning to `O=C(CCl)N1c2ccccc2Oc2ccc3ccccc3c21`, the GI50 is 1.9 µM in the test with A549 NSCLC; 0.163 µM with CCRF-CEM leukemia; 0.894 µM in the test on COLO 205 colon; 0.83 µM in the test on IGROV1 ovarian; 1.31 µM in the test with NCI-H23 lung; 0.78 µM with OVCAR-8 ovarian. In addition, the values for the GI50 with RPMI-8226 leukemia, with SK-OV-3 ovarian and with SW-620 colon were 0.768 µM, 2.51 µM and 0.373 µM, respectively. The TGI in the test with A549 NSCLC was found to be 3.81 µM; in the test on CCRF-CEM leukemia it was 3.39 µM; in the test on COLO 205 colon, 2.35 µM; in the test on IGROV1 ovarian, 2.53 µM; with NCI-H23 lung it was 3.08 µM; in the test with OVCAR-8 ovarian, 2.28 µM. Also, the TGI in the test with RPMI-8226 leukemia was 3.12 µM; in the test on SK-OV-3 ovarian, 6.09 µM; with SW-620 colon, 1.48 µM.
`CCCCCCCC(=O)SCC/C=C/[C@@H]1CC(=O)NCc2cccc(n2)C2=N[C@@](C)(CS2)C(=O)N[C@@H](C(C)C)C(=O)N1`: the GI50 in the test on A549 NSCLC was 0.723 µM; in the test on CCRF-CEM leukemia it was 1.47 µM; in the test with COLO 205 colon, 0.468 µM; with IGROV1 ovarian it was 0.224 µM; in the test with NCI-H23 lung, 2.1 µM; in the test on OVCAR-8 ovarian it was 0.421 µM. The GI50 in the test on RPMI-8226 leukemia was 0.639 µM; in the test with SK-OV-3 ovarian it was 1.23 µM; in the test with SN12C renal it was 3.25 µM; in the test on SW-620 colon, 6.33 µM. Moreover, the TGI was > 33.3 µM in the test on A549 NSCLC; > 33.3 µM in the test with CCRF-CEM leukemia; 1.62 µM with COLO 205 colon; 15.2 µM with IGROV1 ovarian; > 33.3 µM in the test on NCI-H23 lung; > 33.3 µM in the test on OVCAR-8 ovarian. Further, the TGI in the test on RPMI-8226 leukemia is > 33.3 µM; in the test on SK-OV-3 ovarian, 11 µM; in the test on SN12C renal, > 33.3 µM; with SW-620 colon, > 33.3 µM.
Turning to `COc1ccc(C2=CSc3cc(Cl)c(C)cc3S(=O)(=O)N2C(C)=O)cc1`, the GI50 with A549 NSCLC is 27.4 µM; in the test with CCRF-CEM leukemia, 38.6 µM; with COLO 205 colon, 38.5 µM; with IGROV1 ovarian, 36.2 µM; in the test on NCI-H23 lung, 36.4 µM; with OVCAR-8 ovarian it was 33.8 µM. Besides, the GI50 in the test on RPMI-8226 leukemia is 26 µM; in the test with SK-OV-3 ovarian, 60.6 µM; with SN12C renal, 13.7 µM; in the test on SW-620 colon, 38.7 µM. For the same molecule, the TGI in the test with A549 NSCLC is 65 µM; with CCRF-CEM leukemia, > 100 µM; in the test with COLO 205 colon it was > 100 µM; in the test on IGROV1 ovarian, > 100 µM; in the test with NCI-H23 lung, > 100 µM; with OVCAR-8 ovarian it was > 100 µM. Moreover, the TGI with RPMI-8226 leukemia is 94 µM; in the test with SK-OV-3 ovarian, > 100 µM; with SN12C renal, 41.7 µM; with SW-620 colon, > 100 µM.
For `Cc1cnc(NC(=O)C(Cc2ccccc2)NC(=O)c2ccccc2)s1` (configuration not stated), the GI50 was 3.32 µM in the test on A549 NSCLC; 34.7 µM in the test with CCRF-CEM leukemia; 13.5 µM in the test on COLO 205 colon; 3.83 µM in the test with NCI-H23 lung; 2.38 µM with OVCAR-8 ovarian; 2.7 µM with RPMI-8226 leukemia. The GI50 in the test with SK-OV-3 ovarian is 22.9 µM; in the test on SN12C renal, 3.05 µM; with SW-620 colon it was 14 µM. In addition, the TGI in the test on A549 NSCLC is 15.8 µM; with CCRF-CEM leukemia, > 100 µM; with COLO 205 colon, 29.5 µM; with NCI-H23 lung, 23.8 µM; in the test with OVCAR-8 ovarian it was 9.16 µM; with RPMI-8226 leukemia, 9.04 µM. In addition, the TGI was 71.6 µM in the test with SK-OV-3 ovarian, 17.5 µM in the test with SN12C renal and 30.6 µM in the test with SW-620 colon.
In the case of `CC1=C(C(=O)Nc2ccccc2C)C(c2ccco2)C(C(=O)Nc2ccccc2C)=C(C)N1C`, the TGI with A549 NSCLC, in the test with CCRF-CEM leukemia, in the test with IGROV1 ovarian, with NCI-H23 lung, in the test on OVCAR-8 ovarian and in the test on RPMI-8226 leukemia was > 100 µM throughout. The TGI in the test on SK-OV-3 ovarian, in the test with SN12C renal and with SW-620 colon was > 100 µM in each case.
On to `COc1ccc2c(c1)C1(C=N2)CCN(C(C)=O)CC1`, for which the TGI in the test on A549 NSCLC, in the test with CCRF-CEM leukemia, in the test with COLO 205 colon, with IGROV1 ovarian, in the test with NCI-H23 lung and with OVCAR-8 ovarian was > 100 µM each time. Besides, the TGI with RPMI-8226 leukemia, in the test with SK-OV-3 ovarian and in the test with SW-620 colon was > 100 µM throughout.
With `N#CC(C#N)=c1ccc(=C2NCC3CCCN23)cc1` (configuration not stated), the TGI in the test with A549 NSCLC, in the test on CCRF-CEM leukemia, in the test with COLO 205 colon, in the test with IGROV1 ovarian, with OVCAR-8 ovarian and in the test on RPMI-8226 leukemia was > 100 µM throughout. Further, the TGI in the test with SK-OV-3 ovarian, in the test on SN12C renal and in the test on SW-620 colon was > 100 µM each time.
Turning to `COc1ccc(-c2cc(=O)c3ccc(O)cc3o2)c(OC)c1OC`, the TGI with A549 NSCLC, with CCRF-CEM leukemia, in the test with COLO 205 colon, in the test with IGROV1 ovarian, in the test on NCI-H23 lung and in the test on RPMI-8226 leukemia was > 100 µM throughout. For the same molecule, the TGI with SK-OV-3 ovarian, in the test with SN12C renal and with SW-620 colon was > 100 µM throughout.
